Measurements: patent US20100279976A1, “USE OF ARTEMISININ AND ITS DERIVATIVES IN CANCER THERAPY” (SHANGHAI INSTITUTES FOR BIOLOGICAL SCIENCES, CAS, priority 2009, published 2010)

Columns and labels:
[1] = system: BEL-7404 hepatoma cells (p53 mutant); experiment: MTT cell viability assay, BEL-7404; format: cell-based; details: Homo sapiens, BEL-7404 (p53 mutant), 48 h
Procedure: (§1) The effects of ART derivatives on the viability of the aforementioned cells may be determined using the MTT assay. Briefly, 2,000 cells per well were plated in triplicate in 96-well plates. After a 24-h incubation, the cells may be treated with varying concentrations of ART derivatives (0, 1, 5, 10, 25, 50, and 100 μmol/L) for 48 h. The MTT assay may be performed according to the manufacture's instruction and the resultant formazan crystals may be dissolved in DMSO (100 μL). The absorbance may be then recorded at 540 nm. The effects of ART derivatives on cell viability may be assessed by comparing the percent cell viability of the treated cells with the vehicle (DMSO)-treated control cells, which may be arbitrarily assigned at 100% viability. The experiment may be repeated thrice under the same conditions.

Hep3B xenograft tumors = experiment: Hep3B xenograft model in nude mice; format: in vivo
Procedure: Female athymic nude mice (nu/nu; 4-6 wk of age) may be obtained from Shanghai Slac Laboratory Animal Co. Ltd. All animals may be fed with commercial diet and water ad libitum. The human HCC xenograft models in mice may be as follows. Briefly, HepG2 and Hep3B cells may be re-suspended in serum-free DMEM with Matrigel basement membrane matrix at a 5:1 ratio. The cell suspension may then be injected (7×10^6 cells; total volume, 0.2 mL) into the left inguinal area of the BALB/c nude mice. The animals may be monitored for activity and physical condition everyday, and the determination of body weight and measurement of tumor mass may be done every 3 d. Tumor mass may be determined by caliper measurement in two perpendicular diameters of the implant and calculated using the formula ½a×b^2, where a stands for the long diameter and b is the short diameter. The animal use and care protocol is approved by the Institutional Review Board of the Institute for Nutritional Sciences, Chinese Academy of Sciences.
Nude mice bearing HepG2 and Hep3B xenografts, randomly divided into various treatment and control groups (five mice per group), may be treated orally with either ART or DHA suspended in 5% sesame oil+95% saline, at a dose of 50 or 100 mg/kg/d, or a combination of ART or DHA with gemcitabine or with saline (as controls). In the mice receiving combination therapy, 80 mg/kg gemcitabine, representing one fifth of the reported most tolerated dose in mice, may be administered i.p. on days 7, 11, and 15 to avoid possible side effects and to illustrate potential chemo-sensitization effects in this combination regimen.

[2] = system: OVCAR-3 ovarian carcinoma cells; experiment: MTT cell viability assay, OVCAR-3; format: cell-based; details: Homo sapiens, OVCAR-3, 48 hrs
Text: (§2) Human ovarian IOSE144 (immortalized non-tumorigenic human ovarian surface epithelial cells) and ovarian carcinoma (A2780 and OVCAR-3) cells that may be obtained from the American Type Culture Collection (ATCC, Manassas, Va.) are gifts from Dr. Jing Fang (Institute for Nutritional Sciences, Shanghai, China). All cells may be cultured according to the ATCC instructions. The compounds (ARS, ART, ARM and DHA) may be dissolved in DMSO (<0.1%, final concentration).
as §1

[3] = system: HepG2 hepatoma cells (p53 wild-type); experiment: MTT cell viability assay, HepG2; format: cell-based; details: Homo sapiens, 48 h
Procedure: as §1

[4] = system: IOSE144 immortalized non-tumorigenic ovarian surface epithelial cells; experiment: MTT cell viability assay, IOSE144; format: cell-based; details: Homo sapiens, IOSE-144, IOSE144, 48 hrs
Text: as §2, §1

[5] = system: Hep3B hepatoma cells (p53 null); experiment: MTT cell viability assay, Hep3B; format: cell-based; details: Homo sapiens, 48 h
Procedure: as §1

OVCAR-3 xenograft tumors = experiment: OVCAR-3 xenograft model in nude mice; format: in vivo; details: 5 days/week
Procedure: Four to six week old female athymic nude mice (BALB/c, nu/nu) may be purchased from Shanghai Experimental Animal Center (Shanghai, China). Animal studies are approved by the Institute for Nutritional Sciences. The tumor xenograft model may be established as follows. Briefly, A2780 and OVCAR-3 cells may be harvested and re-suspended in serum-free RPMI 1640 medium containing 20% (v/v) Matrigel (BD Biosciences, Bedford, Mass., USA). Aliquots of cells (˜5×10^6 cells/0.2 ml) may be injected subcutaneously into the left inguinal area of the mice. The tumor growth and body weight of the mice may be monitored every other day. Tumor mass may be determined. Mice bearing palpable tumors (˜70 mg) may be randomly divided into treatment and control groups n=5 mice/group). CBP may be dissolved in saline, and DHA may be dissolved in cremophor EL:ethanol:saline (5:5:90, v/v/v). DHA may be administered via i.p. injection at doses of 10 and 25 mg/kg/5 days/week for 3 weeks) alone or combined with CBP (at a single dose of 120 mg/kg, once on day 0). The control group receives saline only. Mice may be killed on day 18. Tumors may be carefully excised, trimmed of extraneous fat or connective tissue, and homogenized in RIPA buffer (100 mg tumor tissue/1 ml RIPA) and prepared for immunoblotting analysis as described above.

OVCAR-3 cells = experiment: Annexin V-FITC apoptosis assay, OVCAR-3; format: cell-based, human; details: for increase in apoptosis versus control: 24 hrs
Procedure: ART- and DHA-induced apoptosis alone or in combination with gemcitabine in HepG2 and Hep3B cells or in combination with carboplatin in ovarian cancer cells may be determined by flow cytometry using the Annexin V-FITC Apoptosis Detection kit following the manufacturer's instructions. […] The cells may then be harvested, washed in PBS, and incubated with Annexin V and propidium iodide for staining in binding buffer at room temperature for 10 min in the dark. The stained cells may be analyzed using the FACSAria instrument.

ovarian cancer cells = experiment: MTT cell viability assay, ovarian cancer cells (line not specified); format: cell-based; details: Homo sapiens, 48 hrs, read-out: inhibition of viability
Procedure: as §1

| Structure (SMILES) | IC20 [1] [µM] | IC50 [1] [µM] | IC80 [1] [µM] | IC20 [2] [µM] | IC50 [2] [µM] | IC80 [2] [µM] | IC20 [3] [µM] | IC50 [3] [µM] | IC80 [3] [µM] | IC20 [4] [µM] | IC50 [4] [µM] | IC80 [4] [µM] | IC20 [5] [µM] | IC50 [5] [µM] | IC80 [5] [µM] | further results |
| --- | --- | --- | --- | --- | --- | --- | --- | --- | --- | --- | --- | --- | --- | --- | --- | --- |
| C[C@@H]1CC[C@H]2[C@@H](C)C(=O)O[C@@H]3O[C@@]4(C)CC[C@@H]1[C@]32OO4 [ART, artemisinin] | 0.9 | 9.9 | 107 | 0.46 | 6.86 | 103 | 1.3 | 14 | 145 | 5.6 | > 500 | > 500 | 0.97 | 10.4 | 113 | effect on tumor growth (Hep3B xenograft tumors; Hep3B xenograft, oral 50 and 100 mg/kg/d, alone): slight inhibitory effect on tumor growth; toxic effects (body weight) (Hep3B xenograft tumors; mouse, in vivo): Neither compound causes any observable toxic effects |
| C[C@H]1[C@@H](O)O[C@@H]2O[C@@]3(C)CC[C@H]4[C@H](C)CC[C@@H]1[C@@]24OO3 [DHA, dihydroartemisinin] | 0.7 | 9.3 | 130 | 0.56 | 6.58 | 77.4 | 1.2 | 13.3 | 146 | 1.84 | 106 | > 500 | 0.96 | 10.3 | 111 | tumor growth inhibition (OVCAR-3 xenograft tumors; DHA 10 mg/kg i.p.): 14%; tumor growth inhibition (OVCAR-3 xenograft tumors; DHA 25 mg/kg i.p.): 37%; toxic effects (body weight) (Hep3B xenograft tumors; Hep3B xenograft mice): Neither compound causes any observable toxic effects; increase in apoptosis versus control (OVCAR-3 cells; OVCAR-3, 25 μM): 18 fold; increase in apoptosis versus control (OVCAR-3 cells; OVCAR-3, 50 μM): 22 fold; rate of apoptosis (control regarded as 100%) (OVCAR-3 cells; OVCAR-3, 24 hrs, DHA 1 μM, CBP 500 μM, alone or combined): 266%; cytotoxicity at 1 µM (ovarian cancer cells; 1 μM): 24%; cytotoxicity at 500 µM (ovarian cancer cells; 500 μM): 95% |
